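Cultured in 96-well plates, cells were exposed to test compound for 48 hours across five concentrations. GI50 is the concentration that inhibits growth by half.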 The source made the active and inactive calls. Rule as the data show it: active = GI50 up to about 1.1 µM and inactive = higher. Square brackets hold non-standard residues; d marks the D form. Peptide text beside a SMILES is read from it.
Legend:
Assay in all cases: NCI tumour cell line growth inhibition, 48 h
NCI-H460 = tested on: NCI-H460
U-251 = tested on: U-251
HL-60 = tested on: HL-60
IGROV-1 = tested on: IGROV-1
UACC-62 = tested on: UACC-62
DMS-114 = tested on: DMS-114
SK-MEL-2 = tested on: SK-MEL-2
SF-268 = tested on: SF-268
EKVX = tested on: EKVX
TK-10 = tested on: TK-10
RXF 393 = tested on: RXF 393
OVCAR-8 = tested on: OVCAR-8
OVCAR-4 = tested on: OVCAR-4
A498 = tested on: A498
786-0 = tested on: 786-0
OVCAR-3 = tested on: OVCAR-3
UACC-257 = tested on: UACC-257
KM12 = tested on: KM12

Measured: GI50

N#CNCC(COCc1ccccc1)c1ccccc1 (configuration not stated)
inactive: NCI-H460 > 100 µM | U-251 > 100 µM | HL-60 61.4 µM | IGROV-1 > 100 µM | UACC-62 > 100 µM | DMS-114 53.2 µM | SK-MEL-2 43.5 µM | SF-268 > 100 µM | EKVX > 100 µM | TK-10 > 100 µM | RXF 393 99.1 µM | OVCAR-8 > 100 µM | OVCAR-4 > 100 µM | A498 > 100 µM | 786-0 > 100 µM

O=C(CCN(C(=O)O)S(=O)(=O)c1ccc(NC(=O)c2ccccc2)cc1)Nc1ccccc1
inactive: NCI-H460 > 61.9 µM | U-251 > 75.7 µM | HL-60 > 61.8 µM | IGROV-1 > 100 µM | UACC-62 > 61.9 µM | OVCAR-3 > 100 µM | DMS-114 > 56 µM | SK-MEL-2 > 100 µM | SF-268 > 100 µM | EKVX > 100 µM | TK-10 > 100 µM | RXF 393 > 100 µM | OVCAR-8 > 96.2 µM | OVCAR-4 > 100 µM | UACC-257 > 65.3 µM | A498 > 100 µM | KM12 > 100 µM | 786-0 > 100 µM

CC1=NN2C(c3ccc([N+](=O)[O-])cc3)=CSC2=NC(C)(C)C1
inactive: NCI-H460 > 100 µM | U-251 > 100 µM | HL-60 > 100 µM | IGROV-1 > 100 µM | UACC-62 > 100 µM | OVCAR-3 > 100 µM | DMS-114 67.8 µM | SK-MEL-2 > 100 µM | SF-268 > 100 µM | EKVX > 100 µM | TK-10 > 100 µM | RXF 393 > 100 µM | OVCAR-8 > 100 µM | OVCAR-4 > 100 µM | UACC-257 > 100 µM | A498 > 100 µM | KM12 > 100 µM | 786-0 > 100 µM

CN(/N=N/c1[nH]cnc1C(N)=O)C1CCCCC1
inactive: NCI-H460 > 100 µM | U-251 > 100 µM | HL-60 29.5 µM | IGROV-1 > 100 µM | UACC-62 61.7 µM | OVCAR-3 75.7 µM | DMS-114 > 100 µM | SK-MEL-2 27.1 µM | SF-268 > 100 µM | EKVX > 100 µM | TK-10 40 µM | RXF 393 > 100 µM | OVCAR-8 36.9 µM | OVCAR-4 55.1 µM | UACC-257 62.1 µM | A498 > 100 µM | KM12 > 100 µM

C/C=C/CC(S(=O)(=O)c1ccccc1)S(=O)(=O)c1ccccc1
inactive: NCI-H460 > 100 µM | U-251 33.3 µM | HL-60 > 100 µM | IGROV-1 > 100 µM | UACC-62 36.1 µM | OVCAR-3 > 100 µM | DMS-114 14 µM | SK-MEL-2 > 100 µM | EKVX > 100 µM | TK-10 > 100 µM | RXF 393 > 100 µM | OVCAR-8 > 100 µM | OVCAR-4 > 100 µM | UACC-257 > 100 µM | A498 > 100 µM | KM12 > 100 µM

C=C1CCC2C(C)(CO)C(O)CCC2(C)C1CC(O)/C(=C/CO)C(=O)O (configuration not stated)
inactive: NCI-H460 > 100 µM | U-251 > 100 µM | HL-60 > 100 µM | IGROV-1 > 100 µM | UACC-62 > 100 µM | DMS-114 > 100 µM | SK-MEL-2 > 100 µM | SF-268 > 100 µM | TK-10 > 100 µM | RXF 393 > 100 µM | OVCAR-8 > 100 µM | OVCAR-4 > 100 µM | UACC-257 > 100 µM | A498 > 100 µM | KM12 > 100 µM | 786-0 > 100 µM

O=C(NC/C=C/CO)c1ccccc1
inactive: NCI-H460 > 100 µM | U-251 > 100 µM | HL-60 > 100 µM | IGROV-1 > 100 µM | UACC-62 > 100 µM | OVCAR-3 > 100 µM | DMS-114 > 100 µM | SK-MEL-2 > 100 µM | SF-268 > 100 µM | EKVX > 100 µM | RXF 393 > 100 µM | OVCAR-8 > 100 µM | OVCAR-4 > 100 µM | UACC-257 > 100 µM | A498 > 100 µM | KM12 > 100 µM

CC(C)C[C@H](NC(=O)[C@H](CC(C)C)NC(=O)[C@@H](Cc1c[nH]c2ccccc12)NC(=O)[C@H](Cc1ccccc1)NC(=O)[C@@H](Cc1c[nH]c2ccccc12)NC(=O)[C@H](CCC(N)=O)NC(=O)[C@@H](CCC(N)=O)NC(=O)[C@@H]1CCCN1C(=O)[C@@H](CCCCN)NC(=O)[C@H]1CCCN1C(=O)[C@H](N)CCCN=C(N)N)C(N)=O (H-[dR][dP][dK]P[dQ]Q[dW]F[dW]LL-NH2)
inactive: NCI-H460 64.7 µM | U-251 > 55 µM | HL-60 > 100 µM | IGROV-1 > 100 µM | UACC-62 > 100 µM | OVCAR-3 > 86.3 µM | DMS-114 > 100 µM | SK-MEL-2 > 100 µM | SF-268 > 100 µM | EKVX > 100 µM | RXF 393 > 100 µM | OVCAR-8 > 100 µM | OVCAR-4 > 100 µM | UACC-257 > 48.3 µM | A498 32.3 µM | KM12 > 100 µM

Reference: ChEMBL document CHEMBL1201862, “PubChem BioAssay data set” (2004)
